Assays:
[1] = system: Mycobacterium tuberculosis Erdman (autoluminescent); test: total FIC50 (Loewe) at 50% inhibition, three-drug combination (log2); higher = more antagonistic
Experimental: (§1)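 DiaMOND equipotent three-drug combination dose responses (10 doses, 1.5- or 2-fold spacing, centred on IC90) against autoluminescent M. tuberculosis Erdman in 8 in vitro models. Read-out is OD600, or luminescence for the intracellular and dormancy models, normalised to untreated wells. Hill-fit Einf, AUC25 and GRinf are potency metrics; FIC50 and FIC90 are total Loewe fractional inhibitory concentrations as log2 (negative = synergy).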

[2] = system: Mycobacterium tuberculosis Erdman (autoluminescent); test: total FIC90 (Loewe) at 90% inhibition, three-drug combination (log2); higher = more antagonistic
Experimental: as §1

[3] = system: Mycobacterium tuberculosis Erdman (autoluminescent); test: AUC25, normalised area under dose response up to IC25 (three-drug combination) (fraction (0-1)); higher = more potent at low dose
Experimental: as §1

[4] = system: Mycobacterium tuberculosis Erdman (autoluminescent); test: GRinf, maximum normalised growth rate inhibition (three-drug combination) (unitless (-1 to 1)); higher = less effect (negative = killing)
Experimental: as §1

[5] = system: Mycobacterium tuberculosis Erdman (autoluminescent); test: Einf, fitted maximum growth inhibition of three-drug combination (fraction); higher = stronger maximal inhibition
Experimental: as §1

CC[C@@H](CO)NCCN[C@@H](CC)CO [ethambutol] + NC(=O)c1cnccn1 [pyrazinamide] + CO[C@H]1/C=C/O[C@@]2(C)Oc3c(C)c(O)c4c(O)c(c(/C=N/N5CCN(C)CC5)c(O)c4c3C2=O)NC(=O)/C(C)=C\C=C\[C@H](C)[C@H](O)[C@@H](C)[C@@H](O)[C@@H](C)[C@H](OC(C)=O)[C@@H]1C [rifampicin]
Settings	AUC25, [3]	Einf, [5]	GRinf, [4]	total FIC50, [1]	total FIC90, [2]
in vitro model: acidic pH 5.7, time point: constant (~7 days, model-specific)	0.0703	0.91	-0.349	-0.177	–
in vitro model: acidic pH 5.7, time point: terminal (~4-5 doublings, model-specific)	0.0348	0.982	-0.218	0.428	-0.924
in vitro model: intracellular J774, time point: constant = terminal	–	0.966	-0.396	–	-2.06

Settings	AUC25, [3]	Einf, [5]	GRinf, [4]	total FIC50, [1]	total FIC90, [2]
in vitro model: butyrate, time point: constant (~7 days, model-specific)	0.0895	0.919	0.0103	0.151	–
in vitro model: butyrate, time point: terminal (~4-5 doublings, model-specific)	0.0793	0.964	0.024	0.114	-0.38
in vitro model: cholesterol 0.05 mM, time point: constant (~7 days, model-specific)	0.089	0.596	0.0152	–	–
in vitro model: cholesterol 0.05 mM, time point: terminal (~4-5 doublings, model-specific)	0.105	0.954	-0.297	1.25	–
in vitro model: cholesterol-high 0.2 mM, time point: constant (~7 days, model-specific)	0.0452	0.964	-0.34	1.12	–
in vitro model: cholesterol-high 0.2 mM, time point: terminal (~4-5 doublings, model-specific)	0.043	0.995	-0.69	1.15	0.828
in vitro model: dormancy (butyrate + nitrate, low O2), time point: constant (~7 days, model-specific)	0.134	0.906	0.291	-1.12	–
in vitro model: dormancy (butyrate + nitrate, low O2), time point: terminal (~4-5 doublings, model-specific)	0.0829	0.989	-0.155	-0.532	0.414
in vitro model: standard 7H9 glycerol, time point: constant = terminal	0.0436	0.897	0.134	0.0958	–
in vitro model: valerate, time point: constant (~7 days, model-specific)	0.0382	0.854	0.143	0.23	–
in vitro model: valerate, time point: terminal (~4-5 doublings, model-specific)	0.0278	0.92	0.0943	0.205	-0.873

CC[C@@H](CO)NCCN[C@@H](CC)CO [ethambutol] + NNC(=O)c1ccncc1 [isoniazid] + CC(=O)NC[C@H]1CN(c2ccc(N3CCOCC3)c(F)c2)C(=O)O1 [linezolid]
Settings	AUC25, [3]	Einf, [5]	GRinf, [4]	total FIC50, [1]	total FIC90, [2]
in vitro model: acidic pH 5.7, time point: constant (~7 days, model-specific)	0.108	0.831	-0.311	0.672	–
in vitro model: acidic pH 5.7, time point: terminal (~4-5 doublings, model-specific)	0.0511	0.939	-0.218	1.64	0.241
in vitro model: intracellular J774, time point: constant = terminal	–	0.958	-0.189	–	-0.0766

Settings	AUC25, [3]	Einf, [5]	GRinf, [4]	total FIC50, [1]	total FIC90, [2]
in vitro model: butyrate, time point: constant (~7 days, model-specific)	0.101	0.9	0.0696	0.578	–
in vitro model: butyrate, time point: terminal (~4-5 doublings, model-specific)	0.0839	0.943	0.0902	0.593	1.01
in vitro model: cholesterol 0.05 mM, time point: constant (~7 days, model-specific)	0.148	0.693	-0.305	-0.315	–
in vitro model: cholesterol 0.05 mM, time point: terminal (~4-5 doublings, model-specific)	0.166	0.918	-0.286	-1.8	–
in vitro model: cholesterol-high 0.2 mM, time point: constant (~7 days, model-specific)	0.102	0.925	-0.717	0.686	–
in vitro model: cholesterol-high 0.2 mM, time point: terminal (~4-5 doublings, model-specific)	0.121	1	-0.966	0.382	1.42
in vitro model: dormancy (butyrate + nitrate, low O2), time point: constant (~7 days, model-specific)	0.117	0.801	0.434	0.669	–
in vitro model: dormancy (butyrate + nitrate, low O2), time point: terminal (~4-5 doublings, model-specific)	0.1	0.971	-0.188	0.326	0.438
in vitro model: standard 7H9 glycerol, time point: constant = terminal	0.0661	0.911	0.099	0.88	–
in vitro model: valerate, time point: constant (~7 days, model-specific)	0.127	0.91	-0.184	0.573	–
in vitro model: valerate, time point: terminal (~4-5 doublings, model-specific)	0.0732	0.944	-0.0217	0.769	0.881

CC[C@@H](CO)NCCN[C@@H](CC)CO [ethambutol] + NNC(=O)c1ccncc1 [isoniazid] + CO[C@H]1/C=C/O[C@@]2(C)Oc3c(C)c(O)c4c(O)c(c(/C=N/N5CCN(C6CCCC6)CC5)c(O)c4c3C2=O)NC(=O)/C(C)=C\C=C\[C@H](C)[C@H](O)[C@@H](C)[C@@H](O)[C@@H](C)[C@H](OC(C)=O)[C@@H]1C [rifapentine]
Settings	AUC25, [3]	Einf, [5]	GRinf, [4]	total FIC50, [1]	total FIC90, [2]
in vitro model: acidic pH 5.7, time point: constant (~7 days, model-specific)	0.116	0.926	-0.233	-0.0354	–
in vitro model: acidic pH 5.7, time point: terminal (~4-5 doublings, model-specific)	0.0443	0.974	-0.12	0.316	-0.0587
in vitro model: intracellular J774, time point: constant = terminal	–	0.961	-0.299	–	-1.77

Settings	AUC25, [3]	Einf, [5]	GRinf, [4]	total FIC50, [1]	total FIC90, [2]
in vitro model: butyrate, time point: constant (~7 days, model-specific)	0.0656	0.919	-0.00839	0.419	–
in vitro model: butyrate, time point: terminal (~4-5 doublings, model-specific)	0.0504	0.961	0.0115	0.431	-0.175
in vitro model: cholesterol 0.05 mM, time point: constant (~7 days, model-specific)	0.0782	0.62	0.0218	0.251	–
in vitro model: cholesterol 0.05 mM, time point: terminal (~4-5 doublings, model-specific)	0.0679	0.705	0.236	0.672	–
in vitro model: cholesterol-high 0.2 mM, time point: constant (~7 days, model-specific)	0.0261	0.963	-0.465	1.28	–
in vitro model: cholesterol-high 0.2 mM, time point: terminal (~4-5 doublings, model-specific)	0.0378	1	-0.581	1.47	1.31
in vitro model: dormancy (butyrate + nitrate, low O2), time point: constant (~7 days, model-specific)	0.123	0.85	0.351	0.273	–
in vitro model: dormancy (butyrate + nitrate, low O2), time point: terminal (~4-5 doublings, model-specific)	0.118	0.99	-0.216	0.00837	0.792
in vitro model: standard 7H9 glycerol, time point: constant = terminal	0.0469	0.904	0.0971	0.347	–
in vitro model: valerate, time point: constant (~7 days, model-specific)	0.0468	0.866	0.0486	0.524	–
in vitro model: valerate, time point: terminal (~4-5 doublings, model-specific)	0.0336	0.929	0.0406	0.609	-0.125

Source: the supplement of paper PMC8617591
